Consider twelve molecules from patent US20260001874A1 (priority 2022, published 2026).

Data set [1] is described as follows: Pharmacokinetics in Lipiodol/castor oil (formulation B) or DMSO/Lipiodol/castor oil (formulation C), oral or subcutaneous. The settings on record: 33 mg/kg oral or subcutaneous, Lipiodol/castor oil 30%/70%.
Data set [2] in a line: in vitro. Particulars: rabbit.
The test system of data set [3] is Shiga toxin Stx-1. The format is cell-based, E. coli. Particulars: read-out: EC50 in vitro Stx1.
Data set [4] can be described thus: Incubation with hepatic mouse microsomes, LC-MS-MS. Particulars: 5 μM, 45 minutes, 37° C.
A short description of data set [5]: in vitro. The settings on record: human.
Data set [6] relates to VacV-ANCHOR. The data set can be described thus: microbe, parasite or virus in culture. It is filed as cell-based, cowpox virus. The settings on record: Orthopoxvirus vaccinia, HeLa, read-out: EC50 in vitro VACV.
The conditions of data set [7]: mouse, in vivo.
The test system of data set [8] is Shiga toxin Stx-2. The format is cell-based, E. coli. Particulars: read-out: EC50 in vitro Stx2.
In data set [9] the test system is myxomatosis-derived virus MYXV-T1-ANCHOR. Nature of the data set: organism not typed. The format is cell-based. The settings on record: RK-13, read-out: EC50 in vitro MYXV.
Data set [10] relates to RK13 cells. Particulars: rabbit.
In data set [11] the test system is HeLa cells. Particulars: human.

Bounds are passed on as bounds.

In general, EC50 refers to the concentration needed to bring the measured effect to its halfway point. For `Cc1nc(-c2ccc(C3N(C)c4ccc(F)cc4C(=O)N3c3c(O)cccc3O)s2)cs1` (stereo not shown) [Compound 1, 3-(2,6-dihydroxyphenyl)-6-fluoro-1-methyl-2-(5-(2-methylthiazol-4-yl)thiophen-2-yl)-2,3-dihydroquinazolin-4(1H)-one], the “pharmacokinetic properties (plasma exposure) compared with the other molecules tested” value in data set [1] is recorded as “best pharmacokinetic properties of all of the molecules tested”. Also, the CC50 in data set [2] is 18.9 µM. In addition, the EC50 in data set [3] stood at 16 nM. The “metabolism by hepatic microsomes in the presence of NADPH” value in data set [4] is “slowed metabolism relative to the other compounds”. Besides, the CC50 in data set [5] was 57.7 µM. For the same molecule, the EC50 in data set [6] amounted to 0.78 nM. In [7] (female, BALB/c), this molecule showed a concentration in brain of 1.7 µM, a concentration in colon of 0.8 µM, a concentration in kidneys of 0.4 µM and a concentration in liver of 0.6 µM. For the same molecule, in [7] (female, BALB/c), the concentration in lungs came to 0.5 µM, the concentration in plasma came to 0.7 µM and the “concentration in small intestine” value came out at 2.1 µM. For the same molecule, in data set [7] (female, BALB/c, sc, 33 mg/kg), the “concentration in brain (metabolite section)” value was 1.5 µM, the “concentration in colon (metabolite section)” value is on record as < 200 nM, the “concentration in kidney (metabolite section)” value was 0.5 µM and the “concentration in liver (metabolite section)” value came to 1 µM. The “concentration in lungs (metabolite section)” value in data set [7] (female, BALB/c, sc, 33 mg/kg) is < 200 nM. The EC50 in data set [8] amounted to 17 nM. Also, the EC50 in [9] came out at 6 nM.
With `Cc1nc(-c2ccc(C3N(C)c4ccc(F)cc4C(=O)N3c3ccccc3)s2)cs1` (stereo not shown) [Compound A], the results for the CC50 in [10] and in [5] were 3.35 µM and > 50 µM, respectively. In addition, the EC50 came out at 52 nM in data set [3], 37.8 nM in data set [6], 60 nM in data set [8] and 74.5 nM in data set [9].
Take `Cc1nc(-c2ccc(C3N(C)c4ccc(F)cc4C(=O)N3c3ccccc3O)s2)cs1` (stereo not shown) [Compound B]: the CC50 in data set [2] is 14 µM; in data set [5] it was 39.9 µM. Further, the EC50 in data set [3] amounted to 25 nM; in data set [6] it was 3.6 nM; in [8], 22 nM; in [9] it was 19 nM.
Turning to `Cc1nc(-c2ccc(C3N(C)c4ccc(F)cc4C(=O)N3c3cccc(O)c3)s2)cs1` (stereo not shown) [Compound C], the CC50 in data set [2] was 3.51 µM; in [5], 29.2 µM. In addition, the concentration for a half-maximal effect (EC50) stood at 62 nM in [3], 32.2 nM in data set [6], 71 nM in data set [8] and 85.8 nM in data set [9].
As for `Cc1nc(-c2ccc(C3N(C)c4ccc(F)cc4C(=O)N3c3ccc(O)cc3)s2)cs1` (stereo not shown) [Compound D], the CC50 in data set [10] was 12.9 µM; in data set [11] it was 20.4 µM. The EC50 was 483 nM in [3], 628 nM in [6] and 5800 nM in data set [9].
Regarding `Cc1nc(-c2ccc(C3N(C)c4ccc(F)cc4C(=O)N3c3cccc(O)c3O)s2)cs1` (stereo not shown) [Compound E], the figures for the CC50 in [2] and in data set [5] were 1.3 µM and 8.5 µM, respectively. For the same molecule, the EC50 in [3] was 32 nM; in data set [6], 4.8 nM; in data set [8], 35 nM; in data set [9] it was 11.5 nM.
As for `Cc1nc(-c2ccc(C3N(C)c4ccc(F)cc4C(=O)N3c3ccc(O)cc3O)s2)cs1` (stereo not shown) [Compound F], the values for the EC50 in data set [3] and in data set [6] were 1500 nM and 27.3 nM, respectively. For the same molecule, the CC50 in data set [5] is 3.6 µM.
For `Cc1nc(-c2ccc(C3N(C)c4ccc(F)cc4C(=O)N3c3cc(O)ccc3O)s2)cs1` (stereo not shown) [Compound G], the CC50 in data set [2] was 12.6 µM; in [5], 36.3 µM. The EC50 is 642 nM in data set [3], 19 nM in data set [6] and 237 nM in data set [9].
Consider `Cc1nc(-c2ccc(C3N(C)c4ccc(F)cc4C(=O)N3c3ccc(O)c(O)c3)s2)cs1` (stereo not shown) [Compound H], for which, in data set [3], the EC50 is 2500 nM.
In the case of `Cc1nc(-c2ccc(C3N(C)c4ccc(F)cc4C(=O)N3c3cc(O)cc(O)c3)s2)cs1` (stereo not shown) [Compound I], the results for the CC50 in data set [2] and in data set [5] were 20.1 µM and 25.9 µM, respectively. Besides, the EC50 in data set [3] was > 30000 nM; in data set [6], 7300 nM; in [9], 9750 nM.
Consider `Cc1nc(-c2ccc(C3N(C)c4ccc(F)cc4C(=O)N3c3ccccc3N)s2)cs1` (stereo not shown) [Compound J], for which the CC50 was 7.46 µM in data set [10] and > 50 µM in data set [5]. The EC50 in data set [3] is 21 nM; in data set [6], 1 nM; in data set [8] it was 27 nM; in data set [9] it was 1.44 nM.
On to `CN1c2ccc(F)cc2C(=O)N(c2c(O)cccc2O)C1c1ccc(-c2csc(CO)n2)s1` (stereo not shown) [metabolite], for which the “presence in kidney, liver, colon, lungs and brain after treatment with compound 1” value in [7] (sc, 33 mg/kg) is listed as “identified in vivo”.
